Reference: patent publication US20230364051A1, “FORMULATIONS AND METHODS FOR IMPROVING AVIAN HEALTH” (CORNELL UNIVERSITY, priority 2022, published 2023)
Marks after values point to notes of the source that are not given here.

System: duodenum
Experiment: Duodenal tissue morphology examination (villi, crypts, goblet cells, Paneth cells)
Format: in vivo, Gallus gallus
Conditions: for # Crypt Paneth Cells / Crypt Depth / Crypt Goblet Cell Diameter / Crypt Goblet Cell Number Acidic / Crypt Goblet Cell Number Mixture / Crypt Goblet Cell Number Neutral / Crypt Goblet Cell Number Total / Crypt Paneth cell Diameter / Villi Goblet Cell Diameter / Villi Goblet Cell Number Acidic / Villi Goblet Cell Number Mixture / Villi Goblet Cell Number Neutral / Villi Goblet Cell Number Total / Villus Height / Villus Surface Area / Villus Width: day 17, duodenum at hatch
Method: Cornish-cross fertile broiler eggs (Gallus gallus, n = 39) were obtained from a commercial hatchery (Moyer’s chicks, Quakertown, PA, USA). The eggs were incubated under optimal conditions at the Cornell University Animal Science Poultry Farm Incubator [18]. […] Each group was then injected with the specific solution (1 mL per egg) with a 21-gauge needle into the amniotic fluid. Treatments in powder form were separately diluted in DI H2O. […] After injection, the injection holes were sealed with cellophane tape and the eggs were placed in hatching baskets such that each treatment was equally represented at each incubator location. Immediately upon hatch (day 21), blood was taken for hemoglobin determination and all chicks were then euthanized by CO2 exposure. The small intestine, pectoral muscle, cecum, and liver were collected, immediately frozen in liquid nitrogen, and then stored in a -80° C. freezer until analysis.
Intestinal morphology examination was performed as was previously described. Duodenum samples were fixed in fresh 4 wt. % (v/v) buffered formaldehyde, dehydrated, cleared, and embedded in paraffin. Serial sections were cut at 5 µm and placed on glass slides. Intestinal sections were deparaffinized in xylene, rehydrated in a graded alcohol series, stained with Alcian Blue/Periodic acid-Schiff, and examined by light microscopy. The following variables were measured in the intestine: villus height, villus width, crypt depth, Paneth cell number per crypt, Paneth cell width, goblet cell number, goblet cell diameter, types of goblet cells in the villi epithelium, and types of goblet cells within the crypts. Measurements in each segment were performed with a light microscope using CellSens Standard software (Olympus, Waltham, MA, USA).

[1] = 1.25 wt. % genistein intraamniotic
[2] = 2.5 wt. % genistein intraamniotic
[3] = 2.5 wt. % genistein vs no injection and H2O, p < 0.05
[4] = 2.5 wt. % vs 1.25 wt. % genistein, p < 0.05
[5] = both genistein treatment groups vs control groups, p < 0.05
[6] = genistein treatment groups (1.25, 2.5 wt. %) vs no injection, H2O and inulin, p < 0.05

SMILES: O=c1c(-c2ccc(O)cc2)coc2cc(O)cc(O)c12 [Genistein, genistein]
- # Crypt Paneth Cells [1]: 2.92 ± 0.10 ^b
- Crypt Depth [1]: 26.36 ± 0.46 ^c µm
- Crypt Goblet Cell Diameter [1]: 2.89 ± 0.02 ^a µm
- Crypt Goblet Cell Number Acidic [1]: 8.51 ± 0.14 ^a Unit
- Crypt Goblet Cell Number Mixture [1]: 0.74 ± 0.06 ^d Unit
- Crypt Goblet Cell Number Neutral [1]: 0.00 ± 0.00 ^a Unit
- Crypt Goblet Cell Number Total [1]: 9.25 ± 0.14 ^ab Unit
- Crypt Paneth cell Diameter [1]: 1.78 ± 0.04 ^a µm
- Villi Goblet Cell Diameter [1]: 3.41 ± 0.03 ^b µm
- Villi Goblet Cell Number Acidic [1]: 23.49 ± 0.67 ^a Unit
- Villi Goblet Cell Number Mixture [1]: 1.69 ± 0.13 ^e Unit
- Villi Goblet Cell Number Neutral [1]: 0.09 ± 0.03 ^b Unit
- Villi Goblet Cell Number Total [1]: 25.26 ± 0.67 ^a Unit
- Villus Height [1]: 204.18 ± 3.73 ^b µm
- Villus Surface Area [1]: 146.97 ± 4.55 ^c mm2
- Villus Width [1]: 44.51 ± 0.86 ^c µm
- Crypt goblet cell diameter vs controls (1.25 wt. % genistein vs all control groups, p < 0.05): significantly greater
- Crypt Paneth cell diameter vs controls (1.25 wt. % genistein vs no injection and 5 wt. % inulin, p < 0.05): significantly (p < 0.05) higher
- Villus width vs controls (1.25 wt. % genistein vs no injection and H2O, p < 0.05): significantly (p < 0.05) greater
- # Crypt Paneth Cells [2]: 3.24 ± 0.11 ^a
- Crypt Depth [2]: 23.65 ± 0.46 ^d µm
- Crypt Goblet Cell Diameter [2]: 2.63 ± 0.02 ^b µm
- Crypt Goblet Cell Number Acidic [2]: 8.81 ± 0.19 ^a Unit
- Crypt Goblet Cell Number Mixture [2]: 0.88 ± 0.06 ^d Unit
- Crypt Goblet Cell Number Neutral [2]: 0.00 ± 0.00 ^a Unit
- Crypt Goblet Cell Number Total [2]: 9.68 ± 0.19 ^a Unit
- Crypt Paneth cell Diameter [2]: 1.65 ± 0.03 ^b µm
- Villi Goblet Cell Diameter [2]: 3.50 ± 0.03 ^a µm
- Villi Goblet Cell Number Acidic [2]: 22.01 ± 0.51 ^b Unit
- Villi Goblet Cell Number Mixture [2]: 2.70 ± 0.16 ^d Unit
- Villi Goblet Cell Number Neutral [2]: 0.19 ± 0.04 ^a Unit
- Villi Goblet Cell Number Total [2]: 24.89 ± 0.54 ^a Unit
- Villus Height [2]: 238.22 ± 3.17 ^a µm
- Villus Surface Area [2]: 184.13 ± 4.66 ^b mm2
- Villus Width [2]: 48.27 ± 0.87 ^b µm
- Crypt goblet cell diameter vs inulin (2.5 wt. % genistein vs 5 wt. % inulin): significantly higher
- Villus height vs controls [3]: significantly increased
- Villus surface area vs controls [3]: significantly increased
- Villus width vs controls [3]: significantly increased
- Villus height, dose comparison [4]: significantly higher
- Villus surface area, dose comparison [4]: significantly higher
- Villus width, dose comparison [4]: significantly higher
- Acidic villi goblet cell count vs controls [5]: significantly higher
- Neutral villi goblet cell count vs controls [5]: significantly higher
- Mixture villi goblet cells vs controls (both genistein treatment groups vs controls, p < 0.05): significantly reduced
- Acidic crypt goblet cell count vs controls (both genistein treatment groups vs no injection, H2O and inulin, p < 0.05): significantly higher
- Total crypt goblet cell count vs controls (genistein exposure vs no injection and H2O, p < 0.05): significantly higher
- Mixed crypt goblet cells vs controls (genistein exposure vs no injection, H2O and inulin, p < 0.05): significantly reduced
- Total number of villi goblet cells vs controls [6]: significantly higher
- Villi goblet cell diameter vs controls [6]: significantly higher
- Crypt depth vs control (genistein treatment groups vs H2O-injection group, p < 0.05): significantly lower
- Number of crypt Paneth cells vs controls (genistein treatment groups vs no injection, H2O and inulin, p < 0.05): significantly greater
